Source: patent US7375222B2, “2,4,6-Triamino-1,3,5-triazine derivative” (Astellas Pharma Inc., priority 2002, dated 2008)

What was measured:
[1] = molecular target: T1, BEC 1 potassium channel (Homo sapiens, UniProt Q9ULD8); test: BEC 1 inhibitory activity using released amount of 86Rb ions from BEC 1-expressing cells; type: cell-based; details: 86Rb ion release, BEC 1-stably expressing CHO (dhfr-deficient) cell, 100 mM KCl stimulation; read-out: BEC1 IC50
T1 construct: expressed in transfected cells
T1 sequence (Q9ULD8 1-1083): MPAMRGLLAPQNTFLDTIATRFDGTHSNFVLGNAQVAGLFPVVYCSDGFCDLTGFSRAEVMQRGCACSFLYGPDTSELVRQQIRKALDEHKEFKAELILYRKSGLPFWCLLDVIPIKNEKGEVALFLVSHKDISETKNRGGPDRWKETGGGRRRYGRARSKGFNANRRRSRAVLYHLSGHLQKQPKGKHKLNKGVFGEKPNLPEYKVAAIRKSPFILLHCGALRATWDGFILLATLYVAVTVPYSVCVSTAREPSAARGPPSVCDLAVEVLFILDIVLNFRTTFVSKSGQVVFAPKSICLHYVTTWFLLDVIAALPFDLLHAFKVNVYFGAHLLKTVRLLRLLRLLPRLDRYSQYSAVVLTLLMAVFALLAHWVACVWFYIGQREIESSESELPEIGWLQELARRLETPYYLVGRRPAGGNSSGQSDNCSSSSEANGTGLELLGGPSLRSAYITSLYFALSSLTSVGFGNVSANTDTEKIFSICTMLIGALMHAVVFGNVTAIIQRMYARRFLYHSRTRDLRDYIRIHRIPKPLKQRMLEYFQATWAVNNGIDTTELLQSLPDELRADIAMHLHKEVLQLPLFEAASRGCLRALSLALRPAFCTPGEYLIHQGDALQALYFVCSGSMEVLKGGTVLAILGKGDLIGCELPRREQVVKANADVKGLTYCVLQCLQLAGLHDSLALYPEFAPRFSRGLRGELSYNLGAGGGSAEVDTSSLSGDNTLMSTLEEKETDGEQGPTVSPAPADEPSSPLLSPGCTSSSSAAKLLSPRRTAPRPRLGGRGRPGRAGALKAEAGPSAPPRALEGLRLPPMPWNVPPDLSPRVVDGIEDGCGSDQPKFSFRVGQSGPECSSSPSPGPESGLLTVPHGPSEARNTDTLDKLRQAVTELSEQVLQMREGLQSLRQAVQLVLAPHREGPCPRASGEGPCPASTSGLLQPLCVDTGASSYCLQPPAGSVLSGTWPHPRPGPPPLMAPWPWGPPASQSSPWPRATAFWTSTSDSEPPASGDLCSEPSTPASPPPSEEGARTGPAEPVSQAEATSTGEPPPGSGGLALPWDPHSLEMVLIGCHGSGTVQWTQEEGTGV
Procedure: In general, the potassium channel can pass Rb^+ ion similar to K^+ ion, so that the channel activity can be measured using release of a radioisotope ^86Rb^+ as a marker. By incubating cells expressing the novel potassium channel protein together with ^86RbCl (e.g., 18 hr, 37° C.), ^86Rb^+ can be incorporated into the cells. The cells are washed with a low K^+ concentration physiological saline (e.g., 4.5 mM K^+) and then suspended in the same solution. When a high K^+ concentration solution (e.g., 100 mM in final concentration) is added to the cell suspension, membrane potential of the cell is depolarized and the potassium channel therefore is activated. As a result, the intracellular ^86Rb^+ is released into the extracellular part, thus radioactivity of the extracellular solution can be used as a marker of the channel activity. It is possible to screen a compound and a peptide capable of modifying activity of the BEC 1 potassium channel protein, by comparing the radioactivity released into the extracellular part when the high K^+ concentration solution is added in the presence and absence of each drug to be tested.
Method for Measuring BEC 1 Inhibitory Activity of Compounds Using Released Amount of ^86Rb ions as the Index
The channel activity of BEC 1 was measured in accordance with the method described in WO 99/37677, using amount of a radioisotope ^86Rb ion released from a BEC 1-expressing cell as the index. That is, when an ^86Rb ion-incorporated BEC 1-expressing cell was stimulated with 100 mM KCl, the radioactivity released from the cell was used as the channel activity of BEC 1. The ^86Rb ions were incorporated into a BEC 1-stably expressing cell by culturing the cell (3 hours, 37° C.) in the presence of ^86RbCl (0.5 μCi/ml), and the un-incorporated ^86Rb ions were removed by washing three times with HEPES-buffered saline (pH 7.4, 2.5 mM KCl). The cells were incubated with HEPES-buffered saline containing a compound to be tested at room temperature for 15 minutes and then further incubated with 100 mM KCl-containing HEPES-buffered saline (pH 7.4) containing the compound to be tested at room temperature for 5 minutes. The extracellular medium was recovered, and then the remaining cells were lysed with 0.1 N NaOH and recovered.
The Cerenkov radioactivity of the extracellular medium and cell lysate was respectively measured, and their total was used as the total radioactivity. The released amount of ^86Rb ions was expressed by the percentage of extracellular medium radioactivity based on the total radioactivity. The value obtained in the presence of the compound was used as a test value, and the value obtained in the absence of the compound as a control value and the value obtained when not stimulated with 100 mM KCl as a blank value. Inhibitory action of each compound was expressed by % inhibition, namely (control value−test value)×100/(control value−blank value), or by an IC50 value calculated from the % inhibition. As the test results of typical compounds are shown in the following Tables 2 and 3, it was confirmed that said compounds have the BEC 1 potassium channel inhibitory action.
In this connection, as the BEC 1-expressing cell, a BEC 1-stably expressing cell prepared in accordance with the method described in WO 99/37677 using a dihydrofolate reductase (dhfr)-deficient strain of a Chinese hamster ovary cell was used.

[2] = system: ECS-induced amnesia; test: Electroconvulsive shock (ECS)-induced amnesia, mouse passive avoidance task; type: in vivo
Procedure: Electricity Chorea Shock (ECS)-Induced Learning Disorder (Mouse Passive Evasion Reaction Test) The evaluation was carried out in the following manner with reference to a report (Eur. J. Pharmacology, 321; 273-278, 1997). Animals; Male ddy mice (SLC, five weeks of age at the time of the training) were used. Arranged into 31 or 32 animals per group. A compound to be evaluated was suspended in a solution prepared by dissolving methyl cellulose in physiological saline to a concentration of 0.5% (hereinafter, 0.5% methyl cellulose solution). The administration volume was set to 10 ml per 1 kg body weight. As a placebo of the compound to be evaluated, 10 ml of the 0.5% methyl cellulose solution per 1 kg body weight (hereinafter, vehicle) was administered. (2) Each mouse was put into the light compartment of a passive avoidance task apparatus and allowed to stand for 30 seconds. Thereafter, the Guillotine door was opened. […] (3) A period of time until the mouse crossed a sensor in the dark compartment after opening the Guillotine door (step-through latency) was recorded. […] Effect of the compound on ECS-induced amnesia was evaluated by comparison between a step-through latency of (ECS+vehicle administration) group and a that of (ECS+evaluation compound administration) group. Data were analyzed using two-tailed steel test. […]

In the case of Fc1ccc(Nc2nc(NCc3ccnc(F)c3)nc(Nc3ccccc3)n2)cc1 [Example 744], the IC50 [1] is reported as 85 nM, the “minimum effective dose (step-through latency)” value ([2]; intraperitoneally administered, male ddy mice, test 24 hours after training) is reported as 3 mg/kg and the “effect on ECS-induced amnesia” value ([2]; mouse passive avoidance task) is reported as “shows the improving effect”.
